Data: ChEMBL document CHEMBL5316333, “Potent Long-Acting Inhibitors Targeting the HIV-1 Capsid Based on a Versatile Quinazolin-4-one Scaffold” (J Med Chem, 2023)

Experiments:
[1] = test system: Human immunodeficiency virus 1; assay: Antiviral activity against HIV-1 NLRep-Rluc infected in human MT2 cells assessed as inhibition of viral growth incubated for 96 hrs by renilla luciferase assay; format: functional, organism-based
[2] = Clearance in Sprague-Dawley rat at 1 mg/kg, iv and measured upto 96 hrs by LC-MS/MS analysis; format: ADME, organism-based; conditions: in vivo
MT2 = assay: Cytotoxicity against human MT2 cells assessed as reduction in cell viability incubated for 4 days by XTT assay; format: toxicity, cell-based; conditions: mt2, 96 h, 96 h, time 4 day
[3] = Selectivity index, ratio of CC50 for cytotoxicity against human MT2 cells to EC50 for antiviral activity against HIV-1 NLRep-Rluc infected in human MT2 cells; format: toxicity, cell-based; conditions: read-out: Ratio CC50/EC50
[4] = Human immunodeficiency virus 1, NLRep-Rluc, MT2, 96 h

| clearance [2] [mL/min/kg] | Structure (SMILES) | EC50 [1, 4] [nM] | other results |
| --- | --- | --- | --- |
| – | Cn1nc(NS(C)(=O)=O)c2c(Cl)ccc(-n3c([C@H](Cc4cc(F)cc(F)c4)NC(=O)Cn4nc(C(F)F)c5c4C(F)(F)[C@@H]4C[C@H]54)nc4cc(N5CCCOCC5)ccc4c3=O)c21 | 0.13 | – |
| – | COC1CCN(c2ccc3c(=O)n(-c4ccc(Cl)c5c(NS(C)(=O)=O)nn(C)c45)c([C@H](Cc4cc(F)cc(F)c4)NC(=O)Cn4nc(C(F)F)c5c4C(F)(F)[C@@H]4C[C@H]54)nc3c2)CC1 | 0.12 | – |
| – | Cn1nc(NS(C)(=O)=O)c2c(Cl)ccc(-n3c([C@H](Cc4cc(F)cc(F)c4)NC(=O)Cn4nc(C(F)F)c5c4C(F)(F)[C@@H]4C[C@H]54)nc4cc(N5CC(C)(C)OC(C)(C)C5)ccc4c3=O)c21 | 0.12 | – |
| 65 | COc1cc(OC)c2c(=O)n(-c3ccc(Cl)c4c(NS(C)(=O)=O)nn(C)c34)c([C@H](Cc3cc(F)cc(F)c3)NC(=O)Cn3nc(C(F)F)c4c3C(F)(F)[C@@H]3C[C@H]43)nc2c1 | 0.064 | – |
| – | Cn1nc(NS(C)(=O)=O)c2c(Cl)ccc(-n3c([C@H](Cc4cc(F)cc(F)c4)NC(=O)Cn4nc(C(F)F)c5c4C(F)(F)[C@@H]4C[C@H]54)nc4cc(N5CCC6(CC5)COC6)ccc4c3=O)c21 | 0.13 | – |
| – | CO[C@@H]1CCN(c2ccc3c(=O)n(-c4ccc(Cl)c5c(NS(C)(=O)=O)nn(C)c45)c([C@H](Cc4cc(F)cc(F)c4)NC(=O)Cn4nc(C(F)F)c5c4C(F)(F)[C@@H]4C[C@H]54)nc3c2)C1 | 0.058 | – |
| 26 | Cn1nc(NS(C)(=O)=O)c2c(Cl)ccc(-n3c([C@H](Cc4cc(F)cc(F)c4)NC(=O)Cn4nc(C(F)F)c5c4C(F)(F)[C@@H]4C[C@H]54)nc4cc(C(C)(C)O)ccc4c3=O)c21 | 0.15 | – |
| – | Cn1nc(NS(C)(=O)=O)c2c(Cl)ccc(-n3c([C@H](Cc4cc(F)cc(F)c4)NC(=O)Cn4nc(C(F)F)c5c4C(F)(F)[C@@H]4C[C@H]54)nc4cc(N5C[C@H]6CC[C@@H](C5)O6)ccc4c3=O)c21 | 0.064 | – |
| 18 | Cn1nc(NS(C)(=O)=O)c2c(Cl)ccc(-n3c([C@H](Cc4cc(F)cc(F)c4)NC(=O)Cn4nc(C(F)F)c5c4C(F)(F)[C@@H]4C[C@H]54)nc4cc(N5CC6(COC6)C5)ccc4c3=O)c21 | 0.064 | – |
| – | C[C@@H]1CN(c2ccc3c(=O)n(-c4ccc(Cl)c5c(NS(C)(=O)=O)nn(C)c45)c([C@H](Cc4cc(F)cc(F)c4)NC(=O)Cn4nc(C(F)F)c5c4C(F)(F)[C@@H]4C[C@H]54)nc3c2)C[C@H](C)N1C | 0.091 | – |
| 4.3 | Cn1nc(NS(C)(=O)=O)c2c(Cl)ccc(-n3c([C@H](Cc4cc(F)cc(F)c4)NC(=O)Cn4nc(C(F)F)c5c4C(F)(F)[C@@H]4C[C@H]54)nc4cc(C5CC5)ccc4c3=O)c21 | 0.14 | – |
| 2.8 | Cn1nc(NS(C)(=O)=O)c2c(Cl)ccc(-n3c([C@H](Cc4cc(F)cc(F)c4)NC(=O)Cn4nc(C(F)F)c5c4C(F)(F)[C@@H]4C[C@H]54)nc4cc(C(C)(F)F)ccc4c3=O)c21 | 0.078 | – |
| – | Cn1nc(NS(C)(=O)=O)c2c(Cl)ccc(-n3c([C@H](Cc4cc(F)cc(F)c4)NC(=O)Cn4nc(C(F)F)c5c4C(F)(F)[C@@H]4C[C@H]54)nc4cc(Br)ccc4c3=O)c21 | 0.053 | – |
| – | Cn1nc(NS(C)(=O)=O)c2c(Cl)ccc(-n3c([C@H](Cc4cc(F)cc(F)c4)NC(=O)Cn4nc(C(F)F)c5c4C(F)(F)[C@@H]4C[C@H]54)nc4cc(N5CCCC5)ccc4c3=O)c21 | 0.23 | – |
| – | Cn1nc(NS(C)(=O)=O)c2c(Cl)ccc(-n3c([C@H](Cc4cc(F)cc(F)c4)NC(=O)Cn4nc(C(F)F)c5c4C(F)(F)[C@@H]4C[C@H]54)nc4cccc(F)c4c3=O)c21 | 0.13 | – |
| – | COc1cccc2c(=O)n(-c3ccc(Cl)c4c(NS(C)(=O)=O)nn(C)c34)c([C@H](Cc3cc(F)cc(F)c3)NC(=O)Cn3nc(C(F)F)c4c3C(F)(F)[C@@H]3C[C@H]43)nc12 | 0.095 | – |
| – | Cn1nc(NS(C)(=O)=O)c2c(Cl)ccc(-n3c([C@H](Cc4cc(F)cc(F)c4)NC(=O)Cn4nc(C(F)F)c5c4C(F)(F)[C@@H]4C[C@H]54)nc4cc(N5CCOCC5=O)ccc4c3=O)c21 | 0.11 | – |
| 11 | Cn1nc(NS(C)(=O)=O)c2c(Cl)ccc(-n3c([C@H](Cc4cc(F)cc(F)c4)NC(=O)Cn4nc(C(F)F)c5c4C(F)(F)[C@@H]4C[C@H]54)nc4cc(N5CCCCC5)ccc4c3=O)c21 | 0.27 | – |
| – | Cn1nc(NS(C)(=O)=O)c2c(Cl)ccc(-n3c([C@H](Cc4cc(F)cc(F)c4)NC(=O)Cn4nc(C(F)F)c5c4C(F)(F)[C@@H]4C[C@H]54)nc4cc(N5CCO[C@@H](C(F)(F)F)C5)ccc4c3=O)c21 | 0.081 | – |
| – | Cn1nc(NS(C)(=O)=O)c2c(Cl)ccc(-n3c([C@H](Cc4cc(F)cc(F)c4)NC(=O)Cn4nc(C(F)F)c5c4C(F)(F)[C@@H]4C[C@H]54)nc4cc(N5CCC5)ccc4c3=O)c21 | 0.11 | – |

| clearance [2] [mL/min/kg] | Structure (SMILES) | EC50 [1, 4] [nM] | other results |
| --- | --- | --- | --- |
| 60 | CN1CCN(c2ccc3c(=O)n(-c4ccc(Cl)c5c(NS(C)(=O)=O)nn(C)c45)c([C@H](Cc4cc(F)cc(F)c4)NC(=O)Cn4nc(C(F)F)c5c4C(F)(F)[C@@H]4C[C@H]54)nc3c2)CC1 | 0.15 | – |
| – | Cn1nc(NS(C)(=O)=O)c2c(Cl)ccc(-n3c([C@H](Cc4cc(F)cc(F)c4)NC(=O)Cn4nc(C(F)F)c5c4C(F)(F)[C@@H]4C[C@H]54)nc4cc(N5CCS(=O)(=O)CC5)ccc4c3=O)c21 | 0.47 | – |
| – | CCN(CC)c1ccc2c(=O)n(-c3ccc(Cl)c4c(NS(C)(=O)=O)nn(C)c34)c([C@H](Cc3cc(F)cc(F)c3)NC(=O)Cn3nc(C(F)F)c4c3C(F)(F)[C@@H]3C[C@H]43)nc2c1 | 0.2 | – |
| 16 | Cn1nc(NS(C)(=O)=O)c2c(Cl)ccc(-n3c([C@H](Cc4cc(F)cc(F)c4)NC(=O)Cn4nc(C(F)F)c5c4C(F)(F)[C@@H]4C[C@H]54)nc4cc(N5CCOCC5)ccc4c3=O)c21 | 0.037 | – |
| – | Cn1nc(NS(C)(=O)=O)c2c(Cl)ccc(-n3c([C@H](Cc4cc(F)cc(F)c4)NC(=O)Cn4nc(C(F)F)c5c4C(F)(F)[C@@H]4C[C@H]54)nc4cc(Cl)ccc4c3=O)c21 | 0.058 | – |
| 78 | Cn1nc(NS(C)(=O)=O)c2c(Cl)ccc(-n3c([C@H](Cc4cc(F)cc(F)c4)NC(=O)Cn4nc(C(F)F)c5c4C(F)(F)[C@@H]4C[C@H]54)nc4cc(S(C)(=O)=O)ccc4c3=O)c21 | 0.15 | – |
| 82 | Cn1nc(NS(C)(=O)=O)c2c(Cl)ccc(-n3c([C@H](Cc4cc(F)cc(F)c4)NC(=O)Cn4nc(C(F)F)c5c4C(F)(F)[C@@H]4C[C@H]54)nc4cc(C#N)ccc4c3=O)c21 | 0.017 | – |
| – | Cn1nc(NS(C)(=O)=O)c2c(Cl)ccc(-n3c([C@H](Cc4cc(F)cc(F)c4)NC(=O)Cn4nc(C(F)F)c5c4C(F)(F)[C@@H]4C[C@H]54)nc4cc(N5C6COCC5COC6)ccc4c3=O)c21 | 0.24 | – |
| – | Cn1nc(NS(C)(=O)=O)c2c(Cl)ccc(-n3c([C@H](Cc4cc(F)cc(F)c4)NC(=O)Cn4nc(C(F)F)c5c4C(F)(F)[C@@H]4C[C@H]54)nc4cc(N5[C@@H]6CC[C@H]5COC6)ccc4c3=O)c21 | 0.057 | – |
| 40 | Cn1nc(NS(C)(=O)=O)c2c(Cl)ccc(-n3c([C@H](Cc4cc(F)cc(F)c4)NC(=O)Cn4nc(C(F)F)c5c4C(F)(F)[C@@H]4C[C@H]54)nc4cc(F)ccc4c3=O)c21 | 0.041 | – |
| 19 | Cn1nc(NS(C)(=O)=O)c2c(Cl)ccc(-n3c([C@H](Cc4cc(F)cc(F)c4)NC(=O)Cn4nc(C(F)F)c5c4C(F)(F)[C@@H]4C[C@H]54)nc4cc(C(C)(C)C)ccc4c3=O)c21 | 0.13 | – |
| 11 | COc1ccc2c(=O)n(-c3ccc(Cl)c4c(NS(C)(=O)=O)nn(C)c34)c([C@H](Cc3cc(F)cc(F)c3)NC(=O)Cn3nc(C(F)F)c4c3C(F)(F)[C@@H]3C[C@H]43)nc2c1F | 0.13 | – |
| 29 | Cn1nc(NS(C)(=O)=O)c2c(Cl)ccc(-n3c([C@H](Cc4cc(F)cc(F)c4)NC(=O)Cn4nc(C(F)F)c5c4C(F)(F)[C@@H]4C[C@H]54)nc4ccc(F)cc4c3=O)c21 | 0.045 | – |
| 9.6 | Cn1nc(NS(C)(=O)=O)c2c(Cl)ccc(-n3c([C@H](Cc4cc(F)cc(F)c4)NC(=O)Cn4nc(C(F)F)c5c4C(F)(F)[C@@H]4C[C@H]54)nc4cc(N5CCOC(C)(C)C5)ccc4c3=O)c21 | 0.05 | – |
| 30 | Cn1nc(NS(C)(=O)=O)c2c(Cl)ccc(-n3c([C@H](Cc4cc(F)cc(F)c4)NC(=O)Cn4nc(C(F)F)c5c4C(F)(F)[C@@H]4C[C@H]54)nc4ccccc4c3=O)c21 (stereo in doubt; 12a) | – | EC50 ([1]; mt2): 0.049 nM; CC50 (MT2): > 20000 nM; selectivity ratio [3]: > 1000 |
| – | COc1cccc2nc([C@H](Cc3cc(F)cc(F)c3)NC(=O)Cn3nc(C(F)F)c4c3C(F)(F)[C@@H]3C[C@H]43)n(-c3ccc(Cl)c4c(NS(C)(=O)=O)nn(C)c34)c(=O)c12 (stereo in doubt; 12d) | – | EC50 ([1]; mt2): 0.11 nM; CC50 (MT2): > 20000 nM; selectivity ratio [3]: > 1000 |
| – | Cn1nc(NS(C)(=O)=O)c2c(Cl)ccc(-n3c([C@H](Cc4cc(F)cc(F)c4)NC(=O)Cn4nc(C(F)F)c5c4C(F)(F)[C@@H]4C[C@H]54)nc4ccccc4c3=O)c21 (stereo in doubt; 13a) | – | EC50 ([1]; mt2): 81 nM; CC50 (MT2): > 1000 nM |
| – | COc1ccc2c(=O)n(-c3ccc(Cl)c4c(NS(C)(=O)=O)nn(C)c34)c([C@H](Cc3cc(F)cc(F)c3)NC(=O)Cn3nc(C(F)F)c4c3C(F)(F)[C@@H]3C[C@H]43)nc2c1 (stereo in doubt; 13b) | – | EC50 ([1]; mt2): 9.8 nM; CC50 (MT2): > 1000 nM |
| – | COc1ccc2nc([C@H](Cc3cc(F)cc(F)c3)NC(=O)Cn3nc(C(F)F)c4c3C(F)(F)[C@@H]3C[C@H]43)n(-c3ccc(Cl)c4c(NS(C)(=O)=O)nn(C)c34)c(=O)c2c1 (stereo in doubt; 13c) | – | EC50 ([1]; mt2): 38 nM |
| – | COc1cccc2nc([C@H](Cc3cc(F)cc(F)c3)NC(=O)Cn3nc(C(F)F)c4c3C(F)(F)[C@@H]3C[C@H]43)n(-c3ccc(Cl)c4c(NS(C)(=O)=O)nn(C)c34)c(=O)c12 (stereo in doubt; 13d) | – | EC50 ([1]; mt2): 130 nM; CC50 (MT2): > 1000 nM |
